# In patent US12679820B2, “Cocrystals, pharmaceutical compositions thereof, and methods of treatment involving same” (Servier Pharmaceuticals LLC, priority 2017, dated 2026):
# Where two headings read alike, the source gives them in different places.
# What was measured:
# [1] = Pharmacokinetics of Compound 1 solid forms in plasma following single PO administration (IV bolus reference) in male Sprague Dawley rats; type: in vivo; details: for AUC(0-inf) / bioavailability: male, rat; for AUC(0-inf) / bioavailability / AUCinf: plasma; for bioavailability: read-out: Absolute % F; for AUCinf: oral gavage 10 mg/kg (as free Compound 1); for AUCinf / Absolute % F: 10 mg/kg; for Absolute % F: oral gavage 10 mg/kg
# Method: Study Design. Twelve (12) male Sprague Dawley rats (purchased from SLAC Laboratory Animal Co. LTD were randomized into four groups (3 animals per group). The animals were fasted overnight, the forms of Compound 1 shown in Table 24 were administered by oral gavage, and the animals were fed 4 hours post-dose. Each form of Compound 1 was administered as a suspension in water containing 0.5% microcrystalline cellulose and 0.1% Tween 80. The Dose Levels and Dose Concentrations shown in Table 24 are based on the corresponding amount of free Compound 1.
# Blood Collection. Blood was serially collected from each animal 0.083 hr, 0.25 hr, 0.5 hr, 1 hr, 2 hr, 4 hr, 8 hr, 24 hr, 48 hr, and 72 hrs post-dose. For each collection, the animal was restrained manually, and approximately 150 μL of blood sample was collected via the tail vein into K2EDTA tubes. The blood samples were put on ice and centrifuged at 2000 g for 5 min to obtain plasma. Plasma samples were stored at approximately −70° C. until analysis.
# To enable the calculation of oral bioavailability, Compound 1 was dissolved in a vehicle containing 10% N-Methyl-2-pyrrolidone (NMP), 10% Solutol HS 15, and 80% saline and administered at 1 mg/kg as intravenous (IV) bolus dose to a separate group of male Sprague-Dawley rats, and blood samples were collected at similar time points to those shown above. Further, plasma samples were obtained from the collected blood samples and stored at approximately −70° C. until analysis.
# Further, the amorphous solid dispersion of Compound 1, as described in Example 23, was suspended in an aqueous vehicle containing 0.5% methyl cellulose (MC) and 0.2% Tween80 at 0.2 mg/mL concentration and dosed at 1 mg/kg as a single oral dose to a separate group of male Sprague-Dawley rats after an overnight fasting. Blood samples were collected at similar time points to those shown above. Further, plasma was harvested and stored at approximately −70° C. until analysis.
# Sample Preparation and Analysis. The concentration of Compound 1 in the plasma samples was determined by LC-MS/MS analysis.
# A 20 μL aliquot of each sample was diluted with 200 μL of acetonitrile containing dexamethasone as an internal standard (40 ng/mL). The resulting mixture was vortexed for 2 min and centrifuged at 5800 rpm for 10 min. A 2 μL sample was injected into LC-MS/MS.
# Results. Historical data for IV administration of Compound 1 and administration of Compound 1 as a spray dried dispersion are also provided in Table 26. The absolute bioavailability of each form of Compound 1 was determined by dividing the AUCinf of the form in question by the AUCinf obtained by IV administration of Compound 1 and correcting for differences in dose. The measured absolute bioavailability of the citrate and maleate cocrystals, as reported in Table 26, was higher than the measured bioavailability of the other forms of Compound 1.
# [2] = Hygroscopicity by Dynamic Vapor Sorption (DVS) analysis; type: physicochemical; details: for water uptake at 80% relative humidity / hygroscopicity: DVS at 25° C.; for water uptake at 80% relative humidity: range 0-95% relative humidity; for form change after DVS analysis (XRPD of the remaining material): XRPD after DVS at 25° C., 0-95% relative humidity
# Method: Dynamic Vapor Sorption (DVS) Analysis. DVS was measured via a SMS (Surface Measurement Systems) DVS Intrinsic. The relative humidity at 25° C. were calibrated against deliquescence point of LiCl, Mg(NO3)2 and KCl. [table] The hygroscopicity of the cocrystal was determined by DVS analysis at 25° C., over a range of 0-95% relative humidity. […]
# mutant IDH1 = details: biochemical and cellular assays; cited from earlier work
# mutant IDH2 = details: biochemical and cellular assays; cited from earlier work
# [3] = listed as Citric Acid Cocrystal Type A
# [4] = male Sprague Dawley rats, fasted
# [5] = male Sprague Dawley rats, vs IV AUCinf, dose-corrected
# [6] = listed as Maleic Acid Cocrystal Type A
structure (smiles),measurement,setting,value
C[C@@H](Nc1nc(N[C@H](C)C(F)(F)F)nc(-c2cccc(Cl)n2)n1)C(F)(F)F [Citrate Cocrystal Type A],AUC(0-inf),"[1]; Sprague Dawley, po, 11.7 mg/kg, oral gavage 11.7 mg/kg (as free Compound 1), male Sprague Dawley rats, fasted",58200 ng·h/mL
same,bioavailability,"[1]; Sprague Dawley, po, 11.7 mg/kg, oral gavage 11.7 mg/kg, male Sprague Dawley rats, vs IV AUCinf, dose-corrected",104%
same,bioavailability (in words),[1]; summary statement referring to the Examples,favorable bioavailability
same,water uptake at 80% relative humidity,[2]; [3],0.5%
same,hygroscopicity,[2]; [3],slightly hygroscopic
same,hygroscopicity,[2]; listed as citric acid cocrystal type A,low hygroscopicity
same,form change after DVS analysis (XRPD of the remaining material),[2],no form change had occurred
"C[C@@H](Nc1nc(N[C@H](C)C(F)(F)F)nc(-c2cccc(Cl)n2)n1)C(F)(F)F [Compound 1, 6-(6-chloropyridin-2-yl)-N^2,N^4-bis((R)-1,1,1-trifluoropropan-2-yl)-1,3,5-triazine-2,4-diamine]",AUC(0-inf),"[1]; Sprague-Dawley, iv, 1 mg/kg, IV bolus 1 mg/kg, male Sprague-Dawley rats, historical data",4800 ng·h/mL
same,bioavailability,"[1]; Sprague-Dawley, iv, 1 mg/kg, IV bolus 1 mg/kg, male Sprague-Dawley rats, historical data (reference)",100%
same,inhibitor of mutant IDH1 protein,mutant IDH1,inhibitor
same,inhibitor of mutant IDH2 protein,mutant IDH2,inhibitor
C[C@@H](Nc1nc(N[C@H](C)C(F)(F)F)nc(-c2cccc(Cl)n2)n1)C(F)(F)F [Free Form A],AUCinf,[1]; [4],30698 ng·h/mL
same,Absolute % F,[1]; [5],63.9%
C[C@@H](Nc1nc(N[C@H](C)C(F)(F)F)nc(-c2cccc(Cl)n2)n1)C(F)(F)F [Free Form C],AUCinf,[1]; [4],10846 ng·h/mL
same,Absolute % F,[1]; [5],22.6%
C[C@@H](Nc1nc(N[C@H](C)C(F)(F)F)nc(-c2cccc(Cl)n2)n1)C(F)(F)F [Maleate Cocrystal Type A],AUCinf,[1]; [4],38625 ng·h/mL
same,Absolute % F,[1]; [5],80.4%
same,water uptake at 80% relative humidity,[2]; [6],2.0%
same,hygroscopicity,[2]; [6],slightly hygroscopic
same,form change after DVS analysis (XRPD of the remaining material),[2],no form change had occurred
